Measured values published in patent US9273092B2, “Selective binding compounds” (RIOGIN Corporation, priority 2011, dated 2016).

Biological target: hSA (Homo sapiens, UniProt P02768)
Assay: hSA binding assay (hSA-coated microtiter plate, streptavidin-polyHRP/ABTS, OD 405 nm)
Settings: for Bmax: given only for compounds with an Exp 2 value
Description: hSA binding assay. Microtiter 96 well plate is coated, overnight at 4° C., using […] of a solution of hSA in PBS ([…]). Plate is washed with PBS and blocked, for 1 hours, using 150 ml, per well, of a 10% solution of Tween 20 in water. After 1 hour the wells are washed with PBS. The hSA binders tested are dissolved in PBS, 100 ml of the tested solutions are then added in the well and incubated for 2 hours. After 2 hours, the solution are discarded and the wells are washed using PBS, 0.1% Tween 20. 100 ml of a solution of streptavidin-polyHRP in PBS 1.375% casein is added to the wells and incubated for 1 more hours. Finally wells are washed with PBS, 0.1% Tween 20, and 100 ml ABTS in phosphate-citrate buffer with sodium perborate is added. After a few minutes OD are read at 405 nm.
A plurality of compounds according to the invention were prepared. All of the compounds contained the Cys-Pro-Cys moiety. These compounds and an assay control were tested using the above procedure. Some compounds were tested twice (Exp 1 and Exp 2).

hSA, sequence (P02768 25-609): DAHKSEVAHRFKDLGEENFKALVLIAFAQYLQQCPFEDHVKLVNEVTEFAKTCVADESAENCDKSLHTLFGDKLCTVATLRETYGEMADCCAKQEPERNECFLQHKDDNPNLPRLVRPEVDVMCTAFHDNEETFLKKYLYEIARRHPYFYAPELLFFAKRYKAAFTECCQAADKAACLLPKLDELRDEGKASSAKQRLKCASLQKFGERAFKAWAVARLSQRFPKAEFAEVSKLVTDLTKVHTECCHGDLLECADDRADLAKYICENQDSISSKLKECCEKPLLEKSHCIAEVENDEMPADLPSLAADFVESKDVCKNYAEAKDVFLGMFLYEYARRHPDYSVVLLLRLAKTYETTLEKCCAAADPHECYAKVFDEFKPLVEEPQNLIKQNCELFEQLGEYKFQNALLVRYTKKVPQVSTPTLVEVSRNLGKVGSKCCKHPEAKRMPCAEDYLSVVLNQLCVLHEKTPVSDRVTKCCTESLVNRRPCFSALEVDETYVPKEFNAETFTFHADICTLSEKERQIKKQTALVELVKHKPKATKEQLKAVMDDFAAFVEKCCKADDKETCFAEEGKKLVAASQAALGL

Row | Sequence | Binding, Exp 2 | Bmax | Binding, Exp 1
1 | KEIEDICPCLW [Compound 93, KEIEDI-LW, "-" represents cysteine-proline-cysteine] | 0.257 | 1.425 | 
2 | KFIEDICPCLW [Compound 13, KFIEDI-LW, "-" represents cysteine-proline-cysteine] | 0.4961 | 1.198 | 0.04979
3 | KIIEDICPCLW [Compound 62, KIIEDI-LW, "-" represents cysteine-proline-cysteine] | 0.2342 | 0.8075 | 1.415
4 | KLFEDICPCLW [Compound 33, KLFEDI-LW, "-" represents cysteine-proline-cysteine] |  |  | 0.1213
5 | KLIADICPCLW [Compound 46, KLIADI-LW, "-" represents cysteine-proline-cysteine] | 0.1074 | 1.077 | 0.2126
6 | KLIDDICPCLW [Compound 34, KLIDDI-LW, "-" represents cysteine-proline-cysteine] |  |  | 0.1237
7 | KLIEDACPCLW [Compound 39, KLIEDA-LW, "-" represents cysteine-proline-cysteine] |  |  | 0.153
8 | KLIEDECPCLW [Compound 11, KLIEDE-LW, "-" represents cysteine-proline-cysteine] |  |  | 0.04808
9 | KLIEDFCPCLW [Compound 44, KLIEDF-LW, "-" represents cysteine-proline-cysteine] |  |  | 0.1836
10 | KLIEDICPCAW [Compound 25, KLIEDI-AW, "-" represents cysteine-proline-cysteine] |  |  | 0.08281
11 | KLIEDICPCFW [Compound 30, KLIEDI-FW, "-" represents cysteine-proline-cysteine] |  |  | 0.1033
12 | KLIEDICPCLE [Compound 49, KLIEDI-LE, "-" represents cysteine-proline-cysteine] |  |  | 0.2709
13 | KLIEDICPCLH [Compound 23, KLIEDI-LH, "-" represents cysteine-proline-cysteine] |  |  | 0.07161
14 | KLIEDICPCLK [Compound 21, KLIEDI-LK, "-" represents cysteine-proline-cysteine] |  |  | 0.06947
15 | KLIEDICPCLQ [Compound 42, KLIEDI-LQ, "-" represents cysteine-proline-cysteine] |  |  | 0.1651
16 | KLIEDICPCLW [Compound 26, KLIEDI-LW, "-" represents cysteine-proline-cysteine] |  |  | 0.08742
17 | KLIEDICPCQW [Compound 48, KLIEDI-QW, "-" represents cysteine-proline-cysteine] |  |  | 0.2445
18 | KLIEDICPCTW [Compound 35, KLIEDI-TW, "-" represents cysteine-proline-cysteine] |  |  | 0.1327
19 | KLIEDICPCVW [Compound 15, KLIEDI-VW, "-" represents cysteine-proline-cysteine] |  |  | 0.05545

Row | Sequence | Binding, Exp 2 | Bmax | Binding, Exp 1
20 | KLIEDQCPCLW [Compound 55, KLIEDQ-LW, "-" represents cysteine-proline-cysteine] |  |  | 0.5209
21 | KLIEDVCPCLW [Compound 56, KLIEDV-LW, "-" represents cysteine-proline-cysteine] |  |  | 0.5311
22 | KLIEEICPCLW [Compound 28, KLIEEI-LW, "-" represents cysteine-proline-cysteine] |  |  | 0.09642
23 | KLIEVICPCLW [Compound 5, KLIEVI-LW, "-" represents cysteine-proline-cysteine] |  |  | 0.03868
24 | KLIEYICPCLW [Compound 53, KLIEYI-LW, "-" represents cysteine-proline-cysteine] |  |  | 0.3109
25 | KLIQDICPCLW [Compound 51, KLIQDI-LW, "-" represents cysteine-proline-cysteine] | 0.1771 | 1.048 | 0.3066
26 | KLISDICPCLW [Compound 3, KLISDI-LW, "-" represents cysteine-proline-cysteine] |  |  | 0.02504
27 | KLIVDICPCLW [Compound 95, KLIVDI-LW, "-" represents cysteine-proline-cysteine] | 0.1395 | 1.19 | 
28 | KLIYDICPCLW [Compound 29, KLIYDI-LW, "-" represents cysteine-proline-cysteine] | 0.09262 | 0.7912 | 0.1014
29 | KLLEDICPCLW [Compound 9, KLLEDI-LW, "-" represents cysteine-proline-cysteine] |  |  | 0.04197
30 | KLQEDICPCLW [Compound 31, KLQEDI-LW, "-" represents cysteine-proline-cysteine] |  |  | 0.1033
31 | KLTEDICPCLW [Compound 24, KLTEDI-LW, "-" represents cysteine-proline-cysteine] |  |  | 0.07352
32 | KLVEDICPCLW [Compound 41, KLVEDI-LW, "-" represents cysteine-proline-cysteine] |  |  | 0.1635
33 | KQIEDICPCLW [Compound 47, KQIEDI-LW, "-" represents cysteine-proline-cysteine] | 0.581 | 1.4 | 0.2411
34 | KTIEDICPCLW [Compound 22, KTIEDI-LW, "-" represents cysteine-proline-cysteine] | 0.1476 | 1.427 | 0.06947
35 | KVIEDICPCLW [Compound 64, KVIEDI-LW, "-" represents cysteine-proline-cysteine] | 0.1137 | 0.3906 | 2.575
36 | LKIKDICPCLW [Compound 94, LKIKDI-LW, "-" represents cysteine-proline-cysteine] | 0.2987 | 1.253 | 
37 | REIEDICPCLW [Compound 96, REIEDI-LW, "-" represents cysteine-proline-cysteine] | 0.2479 | 0.8746 | 
38 | RFIEDICPCLW [Compound 8, RFIEDI-LW, "-" represents cysteine-proline-cysteine] | 0.1971 | 1.136 | 0.04142

Row | Sequence | Binding, Exp 2 | Bmax | Binding, Exp 1
39 | RIIEDICPCLW [Compound 40, RIIEDI-LW, "-" represents cysteine-proline-cysteine] | 0.1166 | 0.6826 | 0.1632
40 | RLEEDICPCLW [Compound 17, RLEEDI-LW, "-" represents cysteine-proline-cysteine] |  |  | 0.0625
41 | RLIADICPCLW [Compound 4, RLIADI-LW, "-" represents cysteine-proline-cysteine] | 0.1216 | 1.036 | 0.03473
42 | RLIDDICPCLW [Compound 6, RLIDDI-LW, "-" represents cysteine-proline-cysteine] | 0.2179 | 1.256 | 0.03897
43 | RLIEDACPCLW [Compound 38, RLIEDA-LW, "-" represents cysteine-proline-cysteine] |  |  | 0.1522
44 | RLIEDECPCLW [Compound 58, RLIEDE-LW, "-" represents cysteine-proline-cysteine] |  |  | 0.8196
45 | RLIEDICPCAW [Compound 59, RLIEDI-AW, "-" represents cysteine-proline-cysteine] |  |  | 1.031
46 | RLIEDICPCFW [Compound 10, RLIEDI-FW, "-" represents cysteine-proline-cysteine] |  |  | 0.04544
47 | RLIEDICPCLH [Compound 63, RLIEDI-LH, "-" represents cysteine-proline-cysteine] |  |  | 1.877
48 | RLIEDICPCLK [Compound 66, RLIEDI-LK, "-" represents cysteine-proline-cysteine] |  |  | 6.227
49 | RLIEDICPCLQ [Compound 65, RLIEDI-LQ, "-" represents cysteine-proline-cysteine] |  |  | 5.789
50 | RLIEDICPCLV [Compound 43, RLIEDI-LV, "-" represents cysteine-proline-cysteine] |  |  | 0.1701
51 | RLIEDICPCLW [Compound 50, RLIEDI-LW, "-" represents cysteine-proline-cysteine] | 0.3359 | 1.14 | 0.2855
52 | RLIEDICPCQW [Compound 60, RLIEDI-QW, "-" represents cysteine-proline-cysteine] |  |  | 1.193
53 | RLIEDICPCTW [Compound 32, RLIEDI-TW, "-" represents cysteine-proline-cysteine] |  |  | 0.1126
54 | RLIEDICPCVW [Compound 52, RLIEDI-VW, "-" represents cysteine-proline-cysteine] |  |  | 0.3108
55 | RLIEDQCPCLW [Compound 16, RLIEDQ-LW, "-" represents cysteine-proline-cysteine] |  |  | 0.06092
56 | RLIEDTCPCLW [Compound 27, RLIEDT-LW, "-" represents cysteine-proline-cysteine] |  |  | 0.08956
57 | RLIEDVCPCLW [Compound 54, RLIEDV-LW, "-" represents cysteine-proline-cysteine] |  |  | 0.3336
